Laboratory results published in BindingDB's records for patent US11691989 (Ascentage Pharma (Suzhou), 2023).

Target: T1, Induced myeloid leukemia cell differentiation protein Mcl-1 [171-323] (Homo sapiens, UniProt Q07820)
T1 construct: 171-323
Assay: Inhibition of Mcl-1 by fluorescence polarization (FP) assay
Protocol: The relative binding potency of representative Compounds of the Disclosure was determined by a fluorescence polarization (FP) assay. The method used a fluorescein labelled peptide (FAM-Bid) which binds to the Mcl-1 protein leading to an increased anisotropy measured in milli-polarization (mP) values using a plate reader. […] A 10-points serial dilution of each compound was prepared in DMSO and 5 μL solution was transferred into flat bottomed, 96-well back plate (final DMSO concentration […]). 120 μL of Buffer (PBS, 0.01% BGG (Sigma Cat. #SRE0011), 0.01% Triton X-100), containing the Fluorescein labelled peptide (Final concentration 2 nM) and Mcl-1 protein (final concentration 20 nM) was then added. […] 10-points dose response curves were plotted with GraphPad software using Sigmoidal Dose-Response Model and the IC50 values were determined by nonlinear regression fitting of the competition curves.

T1 sequence (Q07820 171-323): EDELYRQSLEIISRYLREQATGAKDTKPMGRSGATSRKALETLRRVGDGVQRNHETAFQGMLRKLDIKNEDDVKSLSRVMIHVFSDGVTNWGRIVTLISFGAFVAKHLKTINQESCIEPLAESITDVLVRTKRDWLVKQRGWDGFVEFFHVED

IC50 [nM] | SMILES
19 | Cc1c2c(nn1C)CSCc1cc(n(C)n1)CSc1cc(c3ccc(F)cc3c1)OCCCn1c(C(=O)O)cc3c-2c(Cl)ccc31 [US11691989, Compound 13]
15 | Cc1c(C(=O)O)n2c3ccc(Cl)c(c13)-c1c(nn(C)c1C)CSCc1cc(n(C(C)C)n1)CSc1cc(c3ccc(F)cc3c1)OCCC2 [US11691989, Compound 17]
